“Also recorded” adds a separate entry of the source.
Test system: p3xCPRE/Luc
Assay: Activation of p3xCPRE/Luc by small molecular weight organic compounds (Table 6)
Format: cell-based, human
Details: luciferase activity 16 hours after exposure
Procedure: In the in vitro assay system described above, a stable HeLa cell line was generated that contains a stably-integrated copy of the CPRE-Luc gene.
HMECs and HeLa cells were transiently transfected with 1 μg of 3xCPRE-Luc and 0.1 μg of pRL-SV40. One day after transfection, cells were treated with the compounds listed in Table 6 Luciferase activities were determined 16 hours after exposure to the compounds. To generate stable HeLa cell lines that contain a stably-integrated copy of the CPRE-Luc gene, HeLa cells were transfected with p3xCPRE-Luc plus pcDNA-LacZ-Hyg (an expression vector containing the hygromycin drug resistance gene) using SuperFeet transfection reagent. Two days after transfection, cells were cultured in hygromycin (400 μg/ml)-containing selection medium until individual colonies were identified. The colonies were expanded and the presence of CPRE-Luc-containing clones was examined by inducible luciferase activity. […]

Compared with `O=C(/C=C/c1ccccc1)c1ccccc1` [B, 1,3-diphenylpropenone], `COc1c(C(C)(C)C)cc(C(=O)/C=C/c2ccccc2)cc1C(C)(C)C` [D, 1-(3,5-Di-tert-butyl-4-methoxyphenyl)-3-phenyl-propenone] is 10-fold lower in “CPRE Activity: concentration to achieve a two-fold induction of CPRE activity over control” value: 25 µM for the first, 2.5 µM for the second.

Compared with `COc1ccc(/C=C/C(=O)c2cc(C(C)(C)C)c(OC)c(C(C)(C)C)c2)cc1` [Compound C, 1-(3,5-di-tert-butyl-4-methoxyphenyl)-3-(4-methoxyphenyl)-propenone], `COc1ccc(COc2ccc(C(=O)/C=C/c3cc(OC)c(OC)c(OC)c3)cc2OC)cc1` [K] is 2.5-fold lower in “CPRE Activity: concentration to achieve a two-fold induction of CPRE activity over control” value: 5 µM for the first, 2 µM for the second.

`COc1cc(/C=C/C(=O)c2ccc(OC)c(OC)c2OC)cc(-c2cccs2)c1OC` [Compound G, 3-(3,4-Dimethoxy-5-thiophen-2-ylphenyl)-1-(2,3,4-trimethoxy-phenyl)propenone] and `COc1cc(/C=C/C(=O)c2ccc(OC)c(OC)c2OC)cc(-c2cc3ccccc3s2)c1OC` [Q, 3-(3-Benzo[b]thiophene-2-yl-4,5-dimethoxy-phenyl)-1-(2,3,4-trimethoxy-phenyl)propenone] are within 1.5-fold of each other in “CPRE Activity: concentration to achieve a two-fold induction of CPRE activity over control” value: 3 µM for the first, 2.5 µM for the second.

Going from `COc1ccc(C(=O)/C=C/c2ccc(-c3cccs3)cc2)cc1OC` [Compound I, 1-(3,4-Dimethoxy-phenyl)-3-(4-thiophen-2-ylphenyl)propenone] to `COc1ccc(-c2cccs2)cc1/C=C/C(=O)c1ccc(OCc2ccccn2)c(OC)c1` [L, 1-[3-Methoxy-4-(pyridin-2-ylmethoxy)-phenyl]-3-(2-methoxy-5-thiophen-2-yl-phenyl)propenone], the “CPRE Activity: concentration to achieve a two-fold induction of CPRE activity over control” value falls from 8 µM to 0.7 µM (11-fold).

Going from `CCOc1cc(OCC)c(C(=O)/C=C/c2cc(Br)c(OC)c(OC)c2)cc1OCC` [E, 3-(3-Bromo-4,5-dimethoxyphenyl)-1-(2,4,5-triethoxyphenyl)-propenone] to `COc1cc(OC)c(C(=O)/C=C/c2cc(Br)c(OC)c(OC)c2)cc1OC` [F, 1-(3-Bromo-4,5-dimethoxyphenyl)-1-(2,4,5-trimethoxy-phenyl)propenone], the “CPRE Activity: concentration to achieve a two-fold induction of CPRE activity over control” value falls from 12.5 µM to 1 µM (12-fold).

`COc1ccc(-c2cccs2)cc1/C=C/C(=O)c1cc(OC)c(OC)c(OC)c1` [H, 3-(2-Methoxy-5-thiophen-2-ylphenyl)-1-(3,4,5-trimethoxy-phenyl)propenone] and `COc1cc(OC)c(-c2cc3ccccc3s2)cc1/C=C/C(=O)c1ccc(OC)c(OC)c1` [M, 3-(5-Benzo[b]thiophene-2-yl-2,4-dimethoxy-phenyl)-1-(3,4-dimethoxyphenyl)-propenone] are within 1.5-fold of each other in “CPRE Activity: concentration to achieve a two-fold induction of CPRE activity over control” value: 2 µM for the first, 2.5 µM for the second.

First: COc1cc2c(cc1OC)C(=O)/C(=C/c1cc(Br)c(OC)c(OC)c1)CC2 [J, 2-(3-Bromo-4,5-dimethoxy-benzylidene)-6,7-dimethoxy-3,4-dihydro-2H-naphthalen-1-one.]
Second: COc1cc(OC)c(-c2cc3ccccc3s2)cc1/C=C/C(=O)c1cc(OC)c(O)c(OC)c1 [O, 3-(5-Benzo[b]thiophene-2-yl-2,4-dimethoxy-phenyl)-1-(4-hydroxy-3,5-dimethoxyphenyl)-propenone]
The “CPRE Activity: concentration to achieve a two-fold induction of CPRE activity over control” value of the first is 4.3-fold higher: 3 µM for the first, 0.7 µM for the second.

Compared with `COc1cc(OC)c(-c2cc3ccccc3s2)cc1/C=C/C(=O)c1cc(OC)c(OCC(=O)[O-])c(OC)c1.[Na+]` [N, Sodium {4-[3-(5-benzo[b]thiophene-2-yl-2,4-dimethoxy-phenyl)acryloyl]-2,6-dimethoxyphenoxy}-acetate], `COc1cc(OCC(=O)[O-])c(/C=C/C(=O)c2cc(OC)c(OC)c(OC)c2)cc1-c1cc2ccccc2s1.[Na+]` [R, Sodium {4-benzo[b]thiophene-2-yl-5-methoxy-2-[3-oxo-3-(3,4,5-trimethoxyphenyl)-propenyl]phenoxy}-acetate] is 10-fold higher in “CPRE Activity: concentration to achieve a two-fold induction of CPRE activity over control” value: 1.4 µM for the first, 14 µM for the second.

In the case of `COc1cc(OC)c(-c2cc3ccccc3s2)cc1/C=C/C(=O)c1cc(OC)c([O-])c(OC)c1.[Na+]` [P, Sodium 4-[3-(5-benzo[b]thiophene-2-yl-2,4-dimethoxy-phenyl)acryloyl]-2,6-dimethoxyphenolate], the “CPRE Activity: concentration to achieve a two-fold induction of CPRE activity over control” value is reported as 1 µM.

Test system: p3xCPRE/Luc
Assay: p3xCPRE/Luc reporter, transient transfection in HMEC cells
Format: cell-based, human
Details: t-BHQ 20 μM
Procedure: (§1) In an effort to determine the utility of the CPRE-Luc reporter construct for the identification of small molecular weight compounds that activate the CPRE, the p3xCPRE/Luc reporter was transiently transfected into both HeLa and endothelial cells (HMECs). […] Similar results were obtained in HeLa cells with both t-BHQ and compound A (FIG. 12b).
(§2) HMECs and HeLa cells were transiently transfected with 1 μg of 3xCPRE-Luc and 0.1 μg of pRL-SV40. One day after transfection, cells were treated with t-BHQ or compound A. Luciferase activities were determined 16 hours after exposure to tBHQ. To generate stable HeLa cell lines that contain a stably-integrated copy of the CPRE-Luc gene, HeLa cells were transfected with p3xCPRE-Luc plus pcDNA-LacZ-Hyg (an expression vector containing the hygromycin drug resistance gene) using SuperFect transfection reagent. Two days after transfection, cells were cultured in hygromycin (400 μg/ml)-containing selection medium until individual colonies were identified. The colonies were expanded and the presence of CPRE-Luc-containing clones was examined by inducible luciferase activity. All experiments are an average of at least three independent determinations for each experimental sample.

`CC(C)(C)c1cc(O)ccc1O` [t-BHQ, reference compound] was tested, and the p3xCPRE/Luc activity was “induced CPRE-dependent gene expression; also recorded: significantly increased”.

Test system: p3xCPRE/Luc
Assay: p3xCPRE/Luc reporter, transient transfection in HeLa cells
Format: cell-based, human
Details: t-BHQ 25 μM
Procedure: HMEC cells (passage 20) and HeLa cells were seeded into 6 well plates and were grown to approximately 60-70% confluency. Cells were transfected with 2 μg (HeLa) or 1 μg (HMEC) each of p3xCPRE/Luc reporter and Nrf-2 expression vector (an expression vector containing the full-length murine Nrf-2 gene under the control of the CMV promoter (Asakura & Karino (1990) Circ Res, 66:1045-1066). Cells were cultured for an additional 48 hours, and luciferase activity was determined (Promega). An average of at least three independent determinations were made for each experimental sample. Results are expressed as ratio of firefly/renilla luciferase.
as §1, §2

For `CC(C)(C)c1cc(O)ccc1O` [t-BHQ, reference compound], the p3xCPRE/Luc activity was “significantly increased”.

Test system: murine model of allergen-induced peritonitis
Assay: Murine model of allergen-induced peritonitis (Type 1 hypersensitivity), eosinophil recruitment
Format: in vivo, mouse
Details: Compound G 50 mg/kg i.v., peritoneal fluid 48 hrs post-challenge
Procedure: To evaluate the anti-inflammatory potential of compound A, a murine model of Type 1 hypersensitivity was used. In this model mice are sensitized to ovalbumin and subsequently challenged with ovalbumin by intraperitoneal injection. This leads to eosinophil recruitment and accumulation in the peritoneal cavity 24-48 hours after the challenge.
6-8 week old Balb/c mice (weighing 20-30 g) were given subcutaneous injections of ovalbumin in alum (0.4 ml of 100 μg ovalbumin and 3.3 mg of Alum Inject) on days 0 and 7. The mice were challenged on day 14 with an intraperitoneal injection of ovalbumin (10 μg in 0.2 ml saline). The mice were sacrificed and peritoneal lavage fluid collected 48 hours after the challenge. The peritoneal fluid was concentrated and slide smears made using a cytospin centrifuge. Slides were stained with Diff-Quik and differential counts obtained by counting 300 cells. Compound A was administered by intravenous injection, in a vehicle composed of 95% Liposyn and 5% Tween 20, 4 or 1 hour prior to challenge. Compound A was compared to dexamethosone administered orally at a dose of 2.5 mg/kg/d.
In a common allergic inflammation, balb/C mice were divided into two groups: control/vehicle and Compound G treated. They were then sensitized to ovalbumin on days 0 and 7 with a subcutaneous injection of ovalbumin absorbed in aluminum hydroxide. The treated group was dosed i.v. 50 mg/kg in liposyn/tween and vehicle one day prior to challenge. The mice were then challenged with an intraperitoneal injection of ovalbumin on day 14 and sacrificed 48 hrs post-challenge. Peritoneal fluid was collected and spun down onto slides. Slides were stained with DiffQuik and a differential performed.

`COc1cc(/C=C/C(=O)c2ccc(OC)c(OC)c2OC)cc(-c2cccs2)c1OC` [Compound G, 3-(3,4-Dimethoxy-5-thiophen-2-ylphenyl)-1-(2,3,4-trimethoxy-phenyl)propenone] was tested, and the “Inhibition of eosinophilia compared with vehicle controls” value was 39%.

Same assay, conditions: Compound G 50 mg/kg/d intravenous

For `COc1cc(/C=C/C(=O)c2ccc(OC)c(OC)c2OC)cc(-c2cccs2)c1OC` [Compound G, 3-(3,4-Dimethoxy-5-thiophen-2-ylphenyl)-1-(2,3,4-trimethoxy-phenyl)propenone], the “Eosinophil levels in peritoneal fluid (percent eosinophils)” value was “significantly decreased”.

From patent publication US7247714B2, “Protection against oxidative stress and inflammation by a cytoprotective response element” (Atherogenics, Inc., priority 2001, dated 2007)
